Molecules are shown by their SMILES. Read-outs that look alike come from different tables or passages of the source.

What all share (assay type): physicochemical
The nature of one series: Solubility in water. As to conditions: for Native pH: 150 mg material in 1.0 mL deionized water, before pH adjustment; for solubility: deionized water, pH 7.4, aqueous buffer, thermodynamic from solid. Here is the method:
Method. The solubility in water was studied as described hereafter. 150 mg of the studied materials of (1), (1·Na) and (1·K) were transferred to a glass vial and 1.0 mL of deionized water was added, vortex and ultrasonic treatment cycles were applied during 5 min. Then pH was checked and adjusted to pH=9.0-10.0 range by accurate addition of 2M aqueous solution of NaOH for (1) and (1·Na) or KOH for (1·K). Then several cycles of vortex and ultrasonic treatment were applied for 30 min. pH was adjusted to pH=7.2-7.6 range by careful addition of NaOH or KOH or HCl aqueous solutions. Vortex and ultrasonic treatment cycles and pH adjustments were repeated until pH stabilized at pH=7.2-7.6 range. Then the suspensions were centrifuged at 3000 rpm and supernatant was filtered thought membrane filter. The resulting filtrate was diluted in 1000 folds with DMSO and analyzed by HPLC against standard solution with known concentration.

A short description of series [1]: Forced degradation: thermal stability. As to conditions: for Thermal stability, purity (%): solids at 115° C.; for Decrease of purity in the thermal stability assay: after 3 weeks. The procedure:
For thermal stability powders were exposed to elevated temperature in capped glass vials kept inside thermostatic oven at 115° C.
(§1) Samples were analyzed by RP-HPLC and Chiral HPLC at TO, after 1 week and after 3 weeks. For RP-HPLC analysis samples were analyzed directly from solutions used for stability study. For Chiral HPLC, aliquots were evaporated in Genevac at 40° C. and re-dissolved in the mobile phase.

A short description of series [2]: Forced degradation: photolytic stability. The following applies: for Photolytic stability, purity (%): solutions 1 mg/mL in ACN/water (3:7), cool daylight lamp, around 22° C.; for Initial purities, purity (%): T0, baseline of the photolytic and thermal stability studies; for Decrease of purity in the photolytic stability assay: after 3 weeks. The procedure: For photolytic stability, cool daylight lamp OSRAM DULUX TWIST 23W 1600 lm 6500 K located in 20 cm distance from the studied samples was used. Samples were prepared at 1 mg/mL concentration in ACN/water (3:7 v/v) solution and exposed to light in capped glass vials placed on reflective surface at ambient temperature (around 22° C.).
as §1

The mark [3] stands for this setting: water, pH adjusted to 7.2-7.6, filtrate analysed by HPLC, read-out: Maximal solubility pH 7.4.

For `COc1ccccc1-c1ccc(C(=O)N2[C@@H](c3ccccc3Cl)CC[C@H]2C(=O)[O-])cc1.[K+]` [1·K], the “Native pH” value in the series “Solubility in water” came to 7. Besides, the “Maximal solubility pH 7.4” value in the series “Solubility in water” (water, pH adjusted to 7.2-7.6, filtrate analysed by HPLC) was found to be 87 mg/mL.

Take `COc1ccccc1-c1ccc(C(=O)N2[C@@H](c3ccccc3Cl)CC[C@H]2C(=O)O)cc1` [compound 1, (2S,5R)-5-(2-chlorophenyl)-1-(2′-methoxy-[1,1′-biphenyl]-4-carbonyl)pyrrolidine-2-carboxylic acid]: the “Thermal stability, purity (%)” value came to 88.5% in series [1] (1 week) and 71.4% in series [1] (3 weeks). Moreover, the “Decrease of purity in the thermal stability assay” value in series [1] is 28.1%. In addition, the “Native pH” value in the series “Solubility in water” is on record as 5. The “Solubility in water (in words)” value in “Solubility in water” (acid form) is recorded as “poorly soluble in water”. In addition, in “Solubility in water” (setting [3]), the solubility is more than 64 mg/mL. Further, the “Photolytic stability, purity (%)” value in series [2] (1 week) is 96.7%; in series [2] (3 weeks), 75.9%. In series [2], the “Initial purities, purity (%)” value was 99.3%. In addition, the “Decrease of purity in the photolytic stability assay” value in series [2] is recorded as 23.6%.

On to `COc1ccccc1-c1ccc(C(=O)N2[C@@H](c3ccccc3Cl)CC[C@H]2C(=O)[O-])cc1.[Na+]` [1·Na, sodium (2S,5R)-5-(2-chlorophenyl)-1-(2′-methoxy-[1,1′-biphenyl]-4-carbonyl)pyrrolidine-2-carboxylate], for which the “Thermal stability, purity (%)” value in series [1] (1 week) is 99.1%; in series [1] (3 weeks) it was 98.9%. In addition, the “Decrease of purity in the thermal stability assay” value in series [1] is given as 0.4%. The “Native pH” value in “Solubility in water” is recorded as 7. For the same compound, the solubility is 129 mg/mL in “Solubility in water” (setting [3]) and approximately 130 mg/mL in the series “Solubility in water” (water, read-out: Aqueous solubility (confirmed)). Also, in “Solubility in water” (water, pH 7.4), the “Increase of aqueous solubility compared with the free acid (1)” value is 2 fold. In the series “Solubility in water” (water, pH 7.4), the “Increase of aqueous solubility compared with the potassium salt (1·K)” value is reported as 1.5 fold. Besides, the “Photolytic stability, purity (%)” value was determined as 98.5% in series [2] (1 week) and 97.0% in series [2] (3 weeks). For the same compound, the “Initial purities, purity (%)” value in series [2] was determined as 99.3%. Further, the “Decrease of purity in the photolytic stability assay” value in series [2] is reported as 2.3%.
